Data: ChEMBL document CHEMBL5678803, “Selective blockade of TRPA1 channel attenuates pathological pain without altering noxious cold sensation or body temperature regulation” (Pain, 2011)
Active and inactive are the calls of the source. No cut-off for these calls is given here.

Experiments:
[1] = target: Transient receptor potential cation channel subfamily A member 1 (Rattus norvegicus, UniProt Q6RI86); experiment: Antagonist activity at GFP-tagged rat TRPA1 transfected in HEK293F cells assessed as reduction in AITC-induced inward current at -60 mV holding potential by electrophysiological recordings; assay type: cell-based
[2] = target: T1, Transient receptor potential cation channel subfamily V member 1 (Homo sapiens, UniProt Q8NER1); experiment: Activation of human TRPV1 expressed in HEK293F cells upto 100 micromol/L; assay type: cell-based; details: dose <= 100.0 µmol/L
[3] = target: T2, Transient receptor potential cation channel subfamily V member 2 (Rattus norvegicus) (UniProt Q9WUD2); experiment: Activation of rat TRPV2 expressed in HEK293F cells upto 100 micromol/L; assay type: cell-based; details: dose <= 100.0 µmol/L
T2 sequence (whole entry): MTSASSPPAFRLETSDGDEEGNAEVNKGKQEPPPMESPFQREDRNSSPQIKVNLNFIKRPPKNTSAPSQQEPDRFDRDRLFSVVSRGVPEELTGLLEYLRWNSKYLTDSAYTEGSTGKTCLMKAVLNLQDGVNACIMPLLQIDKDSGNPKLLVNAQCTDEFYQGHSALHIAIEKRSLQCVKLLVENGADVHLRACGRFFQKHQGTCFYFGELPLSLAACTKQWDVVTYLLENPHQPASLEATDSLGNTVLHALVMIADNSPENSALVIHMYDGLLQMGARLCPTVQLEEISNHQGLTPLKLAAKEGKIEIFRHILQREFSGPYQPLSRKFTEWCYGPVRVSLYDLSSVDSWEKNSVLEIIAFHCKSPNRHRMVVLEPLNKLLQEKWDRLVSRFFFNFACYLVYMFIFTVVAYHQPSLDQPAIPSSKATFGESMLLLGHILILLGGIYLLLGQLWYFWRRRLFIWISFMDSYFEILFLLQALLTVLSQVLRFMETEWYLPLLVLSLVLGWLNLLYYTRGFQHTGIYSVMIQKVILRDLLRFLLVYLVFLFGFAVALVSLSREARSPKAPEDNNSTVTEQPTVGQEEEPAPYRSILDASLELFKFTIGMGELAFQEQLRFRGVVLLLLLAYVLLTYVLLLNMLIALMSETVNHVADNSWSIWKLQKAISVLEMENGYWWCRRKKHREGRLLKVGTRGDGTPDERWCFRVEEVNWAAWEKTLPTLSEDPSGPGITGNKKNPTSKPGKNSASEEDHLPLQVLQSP

[4] = target: T3, Transient receptor potential cation channel subfamily V member 2 (Rattus norvegicus, UniProt Q9WUD2); experiment: Antagonist activity at rat TRPV2 expressed in HEK293F cells assessed as inhibition of 2APB-induced increase in intracellular Ca2+ level by FLIPR-based Ca2+ assay; assay type: cell-based
T3 sequence (Q9WUD2 whole entry): T2 sequence (whole entry)

[5] = target: T4, Transient receptor potential cation channel subfamily M member 8 (Homo sapiens, UniProt Q7Z2W7); experiment: Antagonist activity at human TRPM8 expressed in HEK293F cells assessed as inhibition of menthol-induced increase in intracellular Ca2+ level by FLIPR-based Ca2+ assay; assay type: cell-based
Target sequence in this assay (Q7Z2W7 whole entry): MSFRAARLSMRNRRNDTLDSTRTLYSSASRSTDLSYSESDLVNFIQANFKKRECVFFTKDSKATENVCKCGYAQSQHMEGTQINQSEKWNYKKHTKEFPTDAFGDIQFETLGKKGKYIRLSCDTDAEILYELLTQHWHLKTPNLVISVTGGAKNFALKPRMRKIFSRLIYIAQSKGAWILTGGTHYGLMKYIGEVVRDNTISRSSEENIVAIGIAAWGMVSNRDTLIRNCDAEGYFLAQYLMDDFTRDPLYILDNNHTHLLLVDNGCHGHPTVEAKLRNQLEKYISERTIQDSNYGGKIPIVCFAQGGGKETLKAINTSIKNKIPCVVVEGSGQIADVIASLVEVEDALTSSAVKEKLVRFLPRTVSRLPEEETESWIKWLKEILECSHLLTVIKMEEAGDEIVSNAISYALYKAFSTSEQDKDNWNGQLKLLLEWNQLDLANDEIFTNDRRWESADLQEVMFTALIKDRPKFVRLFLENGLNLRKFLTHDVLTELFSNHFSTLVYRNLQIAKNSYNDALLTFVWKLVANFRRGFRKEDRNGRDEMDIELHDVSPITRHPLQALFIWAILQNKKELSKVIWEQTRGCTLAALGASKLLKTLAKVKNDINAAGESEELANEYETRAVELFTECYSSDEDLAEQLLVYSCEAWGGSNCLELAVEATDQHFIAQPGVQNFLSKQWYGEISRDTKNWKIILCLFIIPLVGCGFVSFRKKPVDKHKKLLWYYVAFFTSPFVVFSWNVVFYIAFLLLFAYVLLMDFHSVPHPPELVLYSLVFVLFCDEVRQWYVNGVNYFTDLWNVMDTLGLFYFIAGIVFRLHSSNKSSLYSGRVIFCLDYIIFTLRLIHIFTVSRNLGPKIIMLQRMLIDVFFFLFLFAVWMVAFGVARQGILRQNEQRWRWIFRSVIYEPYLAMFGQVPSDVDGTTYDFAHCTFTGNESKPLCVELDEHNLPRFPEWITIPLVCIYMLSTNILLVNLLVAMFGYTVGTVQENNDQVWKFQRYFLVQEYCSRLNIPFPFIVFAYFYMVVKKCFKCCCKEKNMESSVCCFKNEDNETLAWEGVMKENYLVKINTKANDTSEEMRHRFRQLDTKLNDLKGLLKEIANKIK

[6] = target: T1, Transient receptor potential cation channel subfamily V member 1; experiment: Antagonist activity at human TRPV1 expressed in HEK293F cells assessed as inhibition of capsaicin-induced TRPV1 channel activation by FLIPR-based Ca2+ assay relative to control; assay type: cell-based; details: concentration not given here
[7] = target: T2, Transient receptor potential cation channel subfamily V member 2 (Rattus norvegicus); experiment: Antagonist activity at rat TRPV2 expressed in HEK293F cells assessed as inhibition of 2APB-induced TRPV2 channel activation by FLIPR-based Ca2+ assay relative to control; assay type: cell-based; details: concentration not given here
[8] = target: T4, Transient receptor potential cation channel subfamily M member 8; experiment: Antagonist activity at human TRPM8 expressed in HEK293F cells assessed as inhibition of menthol-induced TRPM8 channel activation by FLIPR-based Ca2+ assay relative to control; assay type: cell-based; details: concentration not given here
Target sequence in this assay (Q7Z2W7 whole entry, looked up): as the sequence (Q7Z2W7 whole entry) above

[9] = target: Sodium-dependent noradrenaline transporter (Homo sapiens) (UniProt P23975); experiment: Inhibition of norepinephrine transporter (unknown origin) at 10 micromol/L by radioligand binding assay; details: dose 10.0 µmol/L
[10] = target: Transient receptor potential cation channel subfamily A member 1 (Rattus norvegicus) (UniProt Q6RI86); experiment: Antagonist activity at endogenous TRPA1 in rat DRG neurons assessed as blockade of AITC-induced Ca2+ signals at 1 micromol/L by […] Ca2+ imaging analysis; assay type: cell-based; details: DRG neuron, filed as antagonist, dose 1.0 µmol/L
[11] = target: Transient receptor potential cation channel subfamily A member 1 (Rattus norvegicus) (UniProt Q6RI86); experiment: Antagonist activity at endogenous TRPA1 in rat DRG neurons assessed as blockade of bradykinin-induced CGRP release at 5 micromol/L; assay type: cell-based; details: DRG neuron, filed as antagonist, dose 5.0 µmol/L
[12] = target: Transient receptor potential cation channel subfamily A member 1 (Rattus norvegicus) (UniProt Q6RI86); experiment: Antagonist activity at endogenous TRPA1 in rat DRG neurons assessed as blockade of capsaicin-induced CGRP release at 50 micromol/L; assay type: cell-based; details: DRG neuron, dose 50.0 µmol/L
[13] = Cmax in rat at 2 mg/kg, po; assay type: ADME, organism-based; details: in vivo
[14] = Drug concentration in rat at 6.2 mg/kg, po measured after 60 mins; assay type: ADME, organism-based; details: in vivo, read-out: Drug uptake
[15] = Drug concentration in rat at 62.1 mg/kg, po measured after 60 mins; assay type: ADME, organism-based; details: in vivo, read-out: Drug uptake
[16] = test system: Rattus norvegicus; experiment: Analgesic activity in MIA-induced osteoarthritic pain Sprague-Dawley rat model assessed as reversal of MIA-induced hind limb grip force deficit preadministered with MIA for 3 weeks followed by oral administration of compound for 1 hrs; assay type: functional; details: dose 6.2-62.1 mg/kg
[17] = Toxicity in Sprague-Dawley rat assessed as effect on mean arterial pressure; details: in vivo
[18] = Toxicity in Sprague-Dawley rat assessed as effect on tail withdrawal latency to hot water immersion at 55 degreeC at 62.1 mg/kg, po by tail immersion test; assay type: organism-based; details: in vivo
[19] = test system: Rattus norvegicus; experiment: Antiallodynic activity in spinal nerve ligation-induced neuropathic pain Sprague-Dawley rat model assessed as attenuation of mechanical allodynia at 6.2 to 62.1 mg/kg, po administered with compound for 1 hrs and measured 10 to 14 days after surgery; assay type: functional, organism-based; details: dose 6.2-62.1 mg/kg, time 241-337 hrs
[20] = test system: Rattus norvegicus; experiment: Antiallodynic activity in CFA-induced mechanical allodynia Sprague-Dawley rat model assessed as attenuation of mechanical allodynia at 6.2 to 62.1 mg/kg, po administered with compound for 1 hrs and measured 48 hrs after CFA injection; assay type: functional, organism-based; details: dose 6.2-62.1 mg/kg, time 49.0 hrs

Transient receptor potential cation channel subfamily A member 1 (Rattus norvegicus), sequence (Q6RI86 whole entry): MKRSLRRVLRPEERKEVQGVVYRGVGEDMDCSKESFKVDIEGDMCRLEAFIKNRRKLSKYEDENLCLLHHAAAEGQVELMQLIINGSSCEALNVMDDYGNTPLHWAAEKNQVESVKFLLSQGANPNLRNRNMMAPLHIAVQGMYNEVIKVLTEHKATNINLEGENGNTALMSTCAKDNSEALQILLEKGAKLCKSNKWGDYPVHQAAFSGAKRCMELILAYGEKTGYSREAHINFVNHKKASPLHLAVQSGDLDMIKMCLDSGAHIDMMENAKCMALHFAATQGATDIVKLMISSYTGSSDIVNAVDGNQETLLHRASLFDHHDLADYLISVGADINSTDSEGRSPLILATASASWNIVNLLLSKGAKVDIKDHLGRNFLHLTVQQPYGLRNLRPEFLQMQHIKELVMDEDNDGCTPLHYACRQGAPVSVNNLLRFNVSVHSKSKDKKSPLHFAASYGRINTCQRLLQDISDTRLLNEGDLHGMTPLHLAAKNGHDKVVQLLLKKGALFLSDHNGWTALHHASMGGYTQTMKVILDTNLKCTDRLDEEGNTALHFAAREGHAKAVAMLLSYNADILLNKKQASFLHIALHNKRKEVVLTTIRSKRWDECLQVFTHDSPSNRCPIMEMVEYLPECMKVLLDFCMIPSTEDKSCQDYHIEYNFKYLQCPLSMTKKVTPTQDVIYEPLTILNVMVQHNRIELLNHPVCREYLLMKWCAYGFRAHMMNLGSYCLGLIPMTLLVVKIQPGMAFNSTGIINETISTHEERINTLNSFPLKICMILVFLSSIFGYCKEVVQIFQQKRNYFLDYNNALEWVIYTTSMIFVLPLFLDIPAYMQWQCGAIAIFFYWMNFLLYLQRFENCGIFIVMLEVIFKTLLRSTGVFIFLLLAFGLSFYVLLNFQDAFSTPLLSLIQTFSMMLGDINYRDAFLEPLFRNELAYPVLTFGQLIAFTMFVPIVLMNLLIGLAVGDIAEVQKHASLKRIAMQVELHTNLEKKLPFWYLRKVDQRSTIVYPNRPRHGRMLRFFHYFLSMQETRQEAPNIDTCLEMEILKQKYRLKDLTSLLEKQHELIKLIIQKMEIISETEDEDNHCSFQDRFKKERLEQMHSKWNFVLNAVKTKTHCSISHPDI
T1 sequence (Q8NER1 whole entry): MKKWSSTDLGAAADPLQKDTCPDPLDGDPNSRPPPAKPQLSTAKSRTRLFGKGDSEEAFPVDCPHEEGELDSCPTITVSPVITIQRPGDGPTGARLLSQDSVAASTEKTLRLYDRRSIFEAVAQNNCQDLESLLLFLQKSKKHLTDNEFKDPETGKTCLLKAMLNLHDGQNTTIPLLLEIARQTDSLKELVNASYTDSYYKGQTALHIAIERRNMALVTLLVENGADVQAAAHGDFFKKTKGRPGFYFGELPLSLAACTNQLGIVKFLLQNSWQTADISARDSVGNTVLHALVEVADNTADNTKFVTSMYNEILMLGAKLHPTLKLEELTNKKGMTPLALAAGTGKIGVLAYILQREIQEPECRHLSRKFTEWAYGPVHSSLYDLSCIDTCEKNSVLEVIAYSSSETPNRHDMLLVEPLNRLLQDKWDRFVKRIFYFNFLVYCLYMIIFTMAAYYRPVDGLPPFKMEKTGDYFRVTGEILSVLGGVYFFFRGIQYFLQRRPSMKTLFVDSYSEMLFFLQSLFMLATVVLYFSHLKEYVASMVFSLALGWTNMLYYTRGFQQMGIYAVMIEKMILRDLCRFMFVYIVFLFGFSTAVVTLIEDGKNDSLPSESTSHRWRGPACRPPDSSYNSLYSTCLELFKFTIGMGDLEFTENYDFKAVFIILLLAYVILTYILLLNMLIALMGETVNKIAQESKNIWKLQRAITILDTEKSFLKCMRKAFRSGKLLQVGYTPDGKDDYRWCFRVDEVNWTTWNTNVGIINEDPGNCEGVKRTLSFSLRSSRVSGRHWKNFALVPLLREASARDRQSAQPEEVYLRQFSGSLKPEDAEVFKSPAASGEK
Sodium-dependent noradrenaline transporter (Homo sapiens), sequence (P23975 whole entry): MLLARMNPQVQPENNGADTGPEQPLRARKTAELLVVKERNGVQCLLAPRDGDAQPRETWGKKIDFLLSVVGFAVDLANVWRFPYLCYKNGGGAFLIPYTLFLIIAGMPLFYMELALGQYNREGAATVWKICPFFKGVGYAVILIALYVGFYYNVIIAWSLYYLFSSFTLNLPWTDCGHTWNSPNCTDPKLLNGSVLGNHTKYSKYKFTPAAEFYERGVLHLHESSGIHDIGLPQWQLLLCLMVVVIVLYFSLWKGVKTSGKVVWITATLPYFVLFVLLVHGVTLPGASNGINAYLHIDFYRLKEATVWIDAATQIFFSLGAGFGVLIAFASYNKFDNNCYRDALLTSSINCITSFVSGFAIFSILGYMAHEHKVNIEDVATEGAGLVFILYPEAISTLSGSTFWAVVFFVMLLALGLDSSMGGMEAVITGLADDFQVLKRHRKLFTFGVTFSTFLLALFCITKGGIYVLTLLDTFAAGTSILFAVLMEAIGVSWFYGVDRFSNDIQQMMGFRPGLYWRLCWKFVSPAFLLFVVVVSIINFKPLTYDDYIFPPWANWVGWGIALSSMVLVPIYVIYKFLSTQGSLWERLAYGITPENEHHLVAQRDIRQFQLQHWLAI
Transient receptor potential cation channel subfamily A member 1, sequence (Q6RI86 whole entry): as the sequence (Q6RI86 whole entry) above

CCC(=N\O)/C(C)=C/c1ccc(F)cc1 [A-079]
IC50 [1]: 0.101 µM
Activity [2]: inactive
Activity [3]: inactive
IC50 [4]: > 100 µM
IC50 [5]: > 100 µM
inhibition [6]: < 20%
inhibition [7]: < 20%
inhibition [8]: < 20%
inhibition [9]: 32%
Activity [10]: Active
Activity [11]: Active
Activity [12]: inactive
Cmax [13]: 720 nM
concentration at 1 h [14]: 1540 nM
concentration at 1 h [15]: 11800 nM
Activity [16]: Dose-Dependent Effect
ED50 [16]: 23.2 mg/kg
Activity [17]: Non-Toxic
Activity [18]: Non-Toxic
Activity [19]: inactive
Activity [20]: inactive
